Test results published in US12044651B2, “Sensor device and methods” (SCENTIAN BIO LIMITED, priority 2016, dated 2024).

Columns and labels:
Type in all cases: binding
OR35a [1] = biological target: T1, OR35a (Drosophila melanogaster, UniProt Q9V3Q2); experiment: CNT-FET sensor, OR35a nanodiscs via his-tag/Ni-NTA (Example 2); conditions: for real time source-drain current response: OR35a nanodiscs 1:10, E-2-hexenal at 64 pM, methyl hexanoate 70 nM to 500 μM
T1 sequence (Q9V3Q2 1-409): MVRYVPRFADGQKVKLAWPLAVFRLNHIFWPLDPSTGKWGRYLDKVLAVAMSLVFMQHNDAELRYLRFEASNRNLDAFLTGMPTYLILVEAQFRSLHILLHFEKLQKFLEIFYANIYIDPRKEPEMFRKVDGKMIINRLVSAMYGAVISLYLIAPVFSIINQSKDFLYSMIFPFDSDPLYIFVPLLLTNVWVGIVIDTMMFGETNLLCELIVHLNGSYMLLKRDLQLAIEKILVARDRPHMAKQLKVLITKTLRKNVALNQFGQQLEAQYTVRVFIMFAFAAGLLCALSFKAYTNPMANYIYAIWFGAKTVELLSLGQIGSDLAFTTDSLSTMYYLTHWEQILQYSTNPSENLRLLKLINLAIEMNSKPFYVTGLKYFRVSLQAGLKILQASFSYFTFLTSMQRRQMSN

Or22a [2] = biological target: T2, Or22a (Drosophila melanogaster, UniProt P81909); experiment: EIS sensor, Or22a nanodiscs on gold electrode (Example 4)
T2 sequence (P81909 1-397): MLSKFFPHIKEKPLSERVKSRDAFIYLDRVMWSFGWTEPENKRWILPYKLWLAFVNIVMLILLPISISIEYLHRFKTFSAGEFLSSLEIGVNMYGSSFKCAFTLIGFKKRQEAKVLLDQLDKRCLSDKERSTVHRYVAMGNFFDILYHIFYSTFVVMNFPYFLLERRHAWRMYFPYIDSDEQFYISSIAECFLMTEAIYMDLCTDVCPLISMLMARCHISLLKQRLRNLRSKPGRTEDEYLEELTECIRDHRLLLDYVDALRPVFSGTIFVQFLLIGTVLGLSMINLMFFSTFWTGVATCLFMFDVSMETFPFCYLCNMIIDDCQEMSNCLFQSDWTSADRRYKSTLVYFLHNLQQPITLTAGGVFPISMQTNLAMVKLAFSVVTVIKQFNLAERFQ

OR35a [3] = biological target: T1, OR35a; experiment: EIS sensor, Or35a nanodiscs on gold electrode (Example 4)
Or10a = biological target: T3, Or10a (Drosophila melanogaster, UniProt Q9VYZ1); experiment: EIS sensor, Or10a liposomes on gold electrode, optimized conditions (Example 5)
T3 sequence (Q9VYZ1 1-406): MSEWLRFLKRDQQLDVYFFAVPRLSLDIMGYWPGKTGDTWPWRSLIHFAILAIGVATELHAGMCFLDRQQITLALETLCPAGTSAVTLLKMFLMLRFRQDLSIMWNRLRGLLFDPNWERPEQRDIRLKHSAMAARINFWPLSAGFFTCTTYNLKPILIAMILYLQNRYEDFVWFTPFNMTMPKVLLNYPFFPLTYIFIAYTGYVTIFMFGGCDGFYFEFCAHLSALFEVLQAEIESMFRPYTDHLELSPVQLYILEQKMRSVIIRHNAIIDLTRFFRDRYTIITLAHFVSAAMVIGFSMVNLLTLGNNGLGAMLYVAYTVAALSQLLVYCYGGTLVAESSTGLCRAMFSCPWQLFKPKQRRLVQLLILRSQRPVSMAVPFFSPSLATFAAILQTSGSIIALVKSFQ

Or22a [4] = biological target: T2, Or22a; experiment: EIS sensor, Or22a liposomes on gold electrode, optimized conditions (Example 5)

| Structure (SMILES) | concentration to which the sensor demonstrates a response in real time (OR35a [1]; OR35a nanodisc functionalized CNT FET) [pM] | real time source-drain current response (OR35a [1]) | ΔI/I0 change (OR35a [1]; at 64 pM, OR35a nanodiscs 1:10 dilution) [%] | EC50 (OR35a [1]; present study, Table 4) [nM] | Sensitivity limit (OR35a [1]; present study, Table 4) [pM] | concentration at which clear electronic response starts (OR35a [1]; real time current measurement mode) [fM] | EIS response to control ligand (Or22a [2]) | LOD (OR35a [3]; EIS) [fM] | LOD (Or22a [2]; EIS) [pM] | EIS response to control ligand (Or10a) | LOD (Or22a [4]; EIS) [fM] | EIS response to control ligand (OR35a [3]) | LOD (Or10a; EIS) [pM] | EIS response to control ligand (Or22a [4]) |
| --- | --- | --- | --- | --- | --- | --- | --- | --- | --- | --- | --- | --- | --- | --- |
| CCC/C=C/C=O [E2-hexenal] | 64 | immediate large decrease | 10 | ~0.3 | 0.001 | 1 | do not respond | < 1 | – | – | – | – | – | – |
| CCCCCC(=O)OC [methyl hexanoate] | – | no clear response | – | – | – | – | – | – | < 100 | do not respond | 10 | – | – | – |
| COC(=O)c1ccccc1O [methyl salicylate] | – | – | – | – | – | – | – | – | – | – | – | does not respond | 1 | do not respond |
